From patent US20100234419A1, “SUBSTITUTED 3-AMINOISOXAZOLOPYRIDINES AS KCNQ2/3 MODULATORS” (GRUNENTHAL GMBH, priority 2009, published 2010) come the findings set out here.

The target of this assay is T1, KCNQ2/3 channels (Homo sapiens, UniProt O43525+O43526).
T1 construct: expressed in transfected cells; host or cells: CHO-K1 cells, kept under selection antibiotics
The experiment in a line: Fluorescence assay using a voltage sensitive dye (fluorimetry). It is filed as cell-based. The note with it: for KCNQ2/3 stimulation at 10 μM: Table 4 comparison experiments; for Emax at 10 µM: relative to retigabine = 100%, read-out: Fluorimetry % efficacy @ 10 μM (retigabine = 100%); for Emax at 10 µM / EC50: CHO-K1 cells expressing KCNQ2/3; for activity towards the KCNQ2/3 receptor: nitrogen atom introduced into the phenyl ring of the benzoisoxazole structure. As for the experimental part: […] CHO-K1 cells expressing KCNQ2/3 channels are cultivated adherently at 37° C., 5% CO2 and 95% humidity in cell culture bottles (e.g. 80 cm^2 TC flasks, Nunc) with DMEM-high glucose (Sigma Aldrich, D7777) including 10% FCS (PAN Biotech, e.g. 3302-P270521) or alternatively MEM Alpha Medium (1×, liquid, Invitrogen, #22571), 10% fetal calf serum (FCS) (Invitrogen, #10270-106, heat-inactivated) and the necessary selection antibiotics.
Before being sown out for the measurements, the cells are washed with a 1×DPBS buffer without Ca^2+/Mg^2+ (e.g. Invitrogen, #14190-094) and detached from the bottom of the culture vessel by means of Accutase (PAA Laboratories, #L11-007) (incubation with Accutase for 15 min at 37° C.). The cell count then present is determined using a CASY™ cell counter (TCC model, Scharfe System) in order subsequently to apply, depending on the density optimization for the individual cell line, 20,000-30,000 cells/well/100 μl of the described nutrient medium to 96-well measuring plates of the Corning™ CelIBIND™ type (Flat Clear Bottom Black Polystyrene Microplates, #3340). Incubation is then carried out for one hour at room temperature, without gassing or adjusting the humidity, followed by incubation for 24 hours at 37° C., 5% CO2 and 95% humidity.
The voltage-sensitive fluorescent dye from the Membrane Potential Assay Kit (Red™ Bulk format part R8123 for FLIPR, MDS Analytical Technologies™) is prepared by dissolving the contents of a vessel Membrane Potential Assay Kit Red Component A in 200 ml of extracellular buffer (ES buffer, 120 mM NaCl, 1 mM KCl, 10 mM HEPES, 2 mM CaCl2, 2 mM MgCl2, 10 mM glucose; pH 7.4). After removal of the nutrient medium, the cells are washed with 200 μl of ES buffer, then covered with a layer of 100 μl of the dye solution prepared above and incubated for 45 min at room temperature with the exclusion of light.
The fluorescence measurements are carried out with a BMG Labtech FLUOstar™ BMG Labtech NOVOstar™ or BMG Labtech POLARstar™ instrument (525 nm excitation, 560 nm emission, Bottom Read mode). After incubation of the dye, 50 μl of the test substances in the desired concentrations, or 50 μl of ES buffer for control purposes, are introduced into separate cavities of the measuring plate and incubated for 30 min at room temperature while being shielded from light. The fluorescence intensity of the dye is then measured for 5 min and the fluorescence value F1 of each well is thus determined at a given, constant time. […] of a 100 mM KCl solution (final concentration […]) are then added to each well. The change in fluorescence is subsequently measured until all the relevant measured values have been obtained (mainly 5-30 min). At a given time after KCl application, a fluorescence value F2 is determined, in this case at the time of the fluorescence peak.
For calculation, the fluorescence intensity F2 is compared with the fluorescence intensity F1, and the agonistic activity of the target compound on the potassium channel is determined therefrom. F2 and F1 are calculated as follows: […]
Calculations of EC50 values are carried out with the aid of ‘Prism v4.0’ software (GraphPad Software™).

On to `FC(F)(F)Sc1ccc(CNc2noc3ccccc23)cc1` [E1, reference compound], for which the “KCNQ2/3 stimulation at 10 μM” value is listed as 75%.
For the compound `CC(Nc1noc2ncccc12)c1ccc(C(F)(F)F)cc1` (stereo not drawn) [Exemplary compound 1, N-(1-(4-(trifluoromethyl)phenyl)ethyl)-isoxazolo[5,4-b]pyridin-3-amine], the Emax at 10 µM amounted to 43%.
Consider `FC(F)(F)Sc1ccc(CNc2noc3ncccc23)cc1` [Exemplary compound 2, N-(4-(Trifluoromethylthio)benzyl)-isoxazolo[5,4-b]pyridin-3-amine], for which the “KCNQ2/3 stimulation at 10 μM” value worked out at 77%; the Emax at 10 µM turned out to be 77%; the concentration for a half-maximal effect (EC50) (as a rule, the concentration at which the effect is half-maximal) was found to be 1690 nM; the “activity towards the KCNQ2/3 receptor” value is recorded as “still present”.
Take `Cc1cc(C)cc(CNc2noc3ncccc23)c1` [Exemplary compound 3, N-(3,5-dimethyl-benzyl)isoxazolo[5,4-b]pyridin-3-amine]: the Emax at 10 µM came to 34%.
On the same count and under the same terms, under `Cc1cc(C)cc(C(C)Nc2noc3ncccc23)c1` (stereo not drawn) [Exemplary compound 4, N-(1-(3,5-dimethyl-phenyl)ethyl)-isoxazolo[5,4-b]pyridin-3-amine] stands 65%; under `CC(Nc1noc2ncccc12)c1ccc(SC(F)(F)F)cc1` (stereo not drawn) [Exemplary compound 5, N-(1-(4-(trifluoromethylthio)phenyl)ethyl)-isoxazolo[5,4-b]pyridin-3-amine], 97%.
For `FC(F)(F)Sc1ccc(CNc2noc3cnccc23)cc1` [Exemplary compound 6, N-(4-(trifluoromethylthio)benzyl)-isoxazolo[5,4-c]pyridin-3-amine], the “KCNQ2/3 stimulation at 10 μM” value came out at 65%, the Emax at 10 µM worked out at 65% and the “activity towards the KCNQ2/3 receptor” value was “still present”.
On to `Cc1cc(C)cc(CNc2noc3cnccc23)c1` [Exemplary compound 7, N-(3,5-dimethyl-benzyl)isoxazolo[5,4-c]pyridin-3-amine], for which the Emax at 10 µM turned out to be 29%.
On to `FC(F)(F)Sc1ccc(CNc2noc3cccnc23)cc1` [Exemplary compound 9, N-(4-(trifluoromethylthio)benzyl)-isoxazolo[4,5-b]pyridin-3-amine], for which the “KCNQ2/3 stimulation at 10 μM” value turned out to be 86%, the Emax at 10 µM worked out at 86% and the “activity towards the KCNQ2/3 receptor” value is “still present”.
Turning to `Cc1cc(C)cc(C(C)Nc2noc3cccnc23)c1` (stereo not drawn) [Exemplary compound 10, N-(1-(3,5-dimethyl-phenyl)ethyl)-isoxazolo[4,5-b]pyridin-3-amine], the Emax at 10 µM stood at 27%.
In the case of `FC(F)(F)Sc1ccc(CNc2noc3ccncc23)cc1` [Exemplary compound 12, N-(4-(trifluoromethylthio)benzyl)-isoxazolo[4,5-c]pyridin-3-amine], the “KCNQ2/3 stimulation at 10 μM” value stood at 39%, the Emax at 10 µM was determined as 39% and the “activity towards the KCNQ2/3 receptor” value was “still present”.
On to `CC(Nc1noc2cccnc12)c1ccc(SC(F)(F)F)cc1` (stereo not drawn) [Exemplary compound 13, N-(1-(4-(trifluoromethylthio)phenyl)-ethyl)isoxazolo[4,5-b]pyridin-3-amine], for which the Emax at 10 µM was 50%.
The same measure, in the same setting: under `CC(Nc1noc2cnccc12)c1ccc(C(F)(F)F)cc1` (stereo not drawn) [Exemplary compound 14, N-(1-(4-(trifluoromethyl)phenyl)-ethyl)isoxazolo[5,4-c]pyridin-3-amine] stands 78%.
The same measure, in the same setting: as for `Cc1cc(C)cc(C(C)Nc2noc3cnccc23)c1` (stereo not drawn) [Exemplary compound 15, N-(1-(3,5-dimethyl-phenyl)ethyl)-isoxazolo[5,4-c]pyridin-3-amine], the figure is 73%.
Same read-out and setting: under `Cc1cc(C)cc(C(C)Nc2noc3ccncc23)c1` (stereo not drawn) [Exemplary compound 16, N-(1-(3,5-dimethyl-phenyl)ethyl)-isoxazolo[4,5-c]pyridin-3-amine] stands 15%.
Turning to `CC(Nc1noc2ccncc12)c1ccc(SC(F)(F)F)cc1` (stereo not drawn) [Exemplary compound 17, N-(1-(4-(trifluoromethylthio)phenyl)ethyl)-isoxazolo[4,5-c]pyridin-3-amine], the Emax at 10 µM came out at 49% and the midpoint of the response, the EC50, lay at 899 nM.
In the case of `Cc1cc(C)cc(C(C)Nc2noc3nc(C(F)(F)F)ccc23)c1` (stereo not drawn) [Exemplary compound 18, N-(1-(3,5-dimethylphenyl)ethyl)-6-(trifluoromethyl)isoxazolo[5,4-b]-pyridin-3-amine], the Emax at 10 µM came to 43%.
Still for that read-out and setting: under `FC(F)(F)Sc1ccc(CNc2noc3nc(C(F)(F)F)ccc23)cc1` [Exemplary compound 19, N-(4-(trifluoromethylthio)benzyl)-6-trifluoromethyl-isoxazolo[5,4-b]pyridin-3-amine] stands 41%; under `Cc1ccc2c(NCc3ccc(SC(F)(F)F)cc3)noc2n1` [Exemplary compound 20, 6-methyl-N-(4-(trifluoromethylthio)benzyl)-isoxazolo[5,4-b]pyridin-3-amine], 49%; under `Cc1cc(C)cc(C(C)Nc2noc3c(C(F)(F)F)nccc23)c1` (stereo not drawn) [Exemplary compound 21, N-(1-(3,5-dimethyl-phenyl)ethyl)-7-trifluoromethyl-isoxazolo[5,4-c]pyridin-3-amine], 39%.
In the case of `Cc1cc(C)cc(C(C)Nc2noc3nc(C)ccc23)c1` (stereo not drawn) [Exemplary compound 22, N-(1-(3,5-dimethylphenyl)ethyl)-6-methyl-isoxazolo[5,4-b]pyridin-3-amine], the Emax at 10 µM stood at 49% and the midpoint of the response, the EC50, lay at 231 nM.
As to `FC(F)(F)Sc1ccc(CNc2noc3c(C(F)(F)F)nccc23)cc1` [Exemplary compound 23, N-(4-(trifluoromethylthio)benzyl)-7-trifluoromethyl-isoxazolo[5,4-c]pyridin-3-amine], the Emax at 10 µM was 27%.
Regarding `FC(F)(F)Sc1ccc(CNc2noc3nc4ccccc4cc23)cc1` [Exemplary compound 24, N-(4-(trifluoromethylthio)benzyl)-isoxazolo[5,4-b]quinolin-3-amine], the Emax at 10 µM came out at 38% and the concentration giving a half-maximal response (EC50) is 411 nM.
As to `FC(F)(F)Sc1ccc(CNc2noc3ccnc(Cl)c23)cc1` [Exemplary compound 25, 4-chloro-N-(4-(trifluoromethylthio)benzyl)-isoxazolo[4,5-c]pyridin-3-amine], the Emax at 10 µM was 19%.
